From patent US20220259593A1, “CONTROL OF MAMMALIAN GENE DOSAGE USING CRISPR” (The Regents of the University of California, priority 2019, published 2022)

What was measured:
[1] = test system: K562 CRISPRi cells; test: Perturb-seq pooled growth measurement (sgRNA counts, growth phenotype γ, relative activity); type: cell-based, human; details: for gamma_day5 / gamma_day10: pooled growth phenotype γ of the Perturb-seq sgRNA; for gamma_day5: day 5, K562 CRISPRi cells; for gamma_day10: day 10, K562 CRISPRi cells; for relative_activity_day5: γ relative to perfectly matched sgRNA (_00) of the same gene, day 5
Procedure, shortened: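 sgRNA abundance was sequenced from genomic DNA of the same transduced population sampled on days two, seven and twelve. Phenotype γ compares normalized day seven and twelve counts with day two. Day-seven values (five days of growth) define relative sgRNA activity.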

[2] = test system: K562 CRISPRi cells; test: as above; type: cell-based, human; details: γ relative to perfectly matched sgRNA (_00) of the same gene, day 10

| Substance | gamma_day5 [1] | gamma_day10 [1] | relative_activity_day5 [1] | relative_activity_day10 [2] |
| --- | --- | --- | --- | --- |
| COX11_ + _53045977.23-P1P2_05 (guide GGCTCTGGCGTCTTGGATGG; listed as DNA, chemistry not fully specified) | −0.0555 | −0.108 | 0.3055 | 0.3613 |
| COX11_ + _53045977.23-P1P2_10 (guide GGCTCTGGCGTCCCGGATGG; listed as DNA, chemistry not fully specified) | −0.1247 | −0.1116 | 0.6866 | 0.3734 |
| DBR1_ + _137893744.23-P1P2_00 (guide GTTTGCAGGAGTCTACACCC; listed as DNA, chemistry not fully specified) | −0.4556 | −0.4893 | 1 | 1 |
| DBR1_ + _137893744.23-P1P2_01 (guide GATTGCAGGAGTCTACACCC; listed as DNA, chemistry not fully specified) | −0.5119 | −0.5474 | 1.124 | 1.119 |
| DBR1_ + _137893744.23-P1P2_05 (guide GTTTGCAGGAGTGTACACCC; listed as DNA, chemistry not fully specified) | −0.3102 | −0.3094 | 0.6809 | 0.6323 |
| DBR1_ + _137893744.23-P1P2_07 (guide GTTTGCAGGGGTCTACACCC; listed as DNA, chemistry not fully specified) | −0.5167 | −0.468 | 1.134 | 0.9563 |
| DBR1_ + _137893744.23-P1P2_08 (guide GTTTGCAGTAGTCTACACCC; listed as DNA, chemistry not fully specified) | −0.03529 | −0.05261 | 0.07746 | 0.1075 |
| DUT_ + _48624411.23-P1P2_00 (guide GCGAGCGAGGAGACCACCGG; listed as DNA, chemistry not fully specified) | −0.7929 | −0.6457 | 1 | 1 |
| DUT_ + _48624411.23-P1P2_01 (guide GCCAGCGAGGAGACCACCGG; listed as DNA, chemistry not fully specified) | −0.7924 | −0.6032 | 0.9993 | 0.9341 |
| DUT_ + _48624411.23-P1P2_07 (guide GCGAGCGAGGAGCCCACCGG; listed as DNA, chemistry not fully specified) | −0.7197 | −0.4998 | 0.9077 | 0.774 |
| DUT_ + _48624411.23-P1P2_08 (guide GCGAGCGAGGAGGCCACCGG; listed as DNA, chemistry not fully specified) | −0.7725 | −0.5862 | 0.9742 | 0.9077 |
| DUT_ + _48624411.23-P1P2_10 (guide GCGAGCGAGGAGACCAACGG; listed as DNA, chemistry not fully specified) | −0.3864 | −0.3196 | 0.4873 | 0.4949 |
| EIF2S1_ −_67827080.23-P1P2_00 (guide GAGCGAAGCGCACGCTGAGG; listed as DNA, chemistry not fully specified) | −0.9047 | −0.5155 | 1 | 1 |
| EIF2S1_ −_67827080.23-P1P2_01 (guide GAGCGAAACGCACGCTGAGG; listed as DNA, chemistry not fully specified) | −0.4467 | −0.3032 | 0.4937 | 0.5881 |
| EIF2S1_ −_67827080.23-P1P2_02 (guide GAGCGCAGCGCACGCTGAGG; listed as DNA, chemistry not fully specified) | −0.7288 | −0.4556 | 0.8055 | 0.8838 |
| EIF2S1_ −_67827080.23-P1P2_06 (guide GAGCGAAGCGCGCGCTGAGG; listed as DNA, chemistry not fully specified) | −0.6688 | −0.3635 | 0.7393 | 0.7051 |
| EIF2S1_ −_67827080.23-P1P2_07 (guide GAGCGAAGCGCTCGCTGAGG; listed as DNA, chemistry not fully specified) | −0.08307 | −0.04004 | 0.09182 | 0.07767 |

| Substance | gamma_day5 [1] | gamma_day10 [1] | relative_activity_day5 [1] | relative_activity_day10 [2] |
| --- | --- | --- | --- | --- |
| GATA1 −_48645022.23-P1P2_12 (guide GTGAGCTTGCCACATCCGCA; listed as DNA, chemistry not fully specified) | −0.1084 | −0.06327 | 0.1126 | 0.1028 |
| GATA1_ −_48645022.23-P1P2_00 (guide GTGAGCTTGCCACATCCCCA; listed as DNA, chemistry not fully specified) | −0.9627 | −0.6153 | 1 | 1 |
| GATA1_ −_48645022.23-P1P2_03 (guide GTGCGCTTGCCACATCCCCA; listed as DNA, chemistry not fully specified) | −0.9855 | −0.6259 | 1.024 | 1.017 |
| GATA1_ −_48645022.23-P1P2_04 (guide GTGAGCTTACCACATCCCCA; listed as DNA, chemistry not fully specified) | −0.9313 | −0.6032 | 0.9673 | 0.9804 |
| GATA1_ −_48645022.23-P1P2_06 (guide GTGAGCTTGCGACATCCCCA; listed as DNA, chemistry not fully specified) | −0.5073 | −0.3486 | 0.5269 | 0.5666 |
| GATA1_ −_48645022.23-P1P2_08 (guide GTGAGCTTTCCACATCCCCA; listed as DNA, chemistry not fully specified) | −0.7632 | −0.4893 | 0.7928 | 0.7953 |
| GINS1_ −_25388381.23-P1P2_00 (guide GGACTAGAACGAAAGGAGTG; listed as DNA, chemistry not fully specified) | −0.9993 | −0.7125 | 1 | 1 |
| GINS1_ −_25388381.23-P1P2_03 (guide GGACTATAACGAAAGGAGTG; listed as DNA, chemistry not fully specified) | −0.7467 | −0.4797 | 0.7472 | 0.6733 |
| GINS1_ −_25388381.23-P1P2_06 (guide GGACTAGAACGGAAGGAGTG; listed as DNA, chemistry not fully specified) | −0.9794 | −0.6548 | 0.9801 | 0.9191 |
| GINS1_ −_25388381.23-P1P2_08 (guide GGACTAGAGCGAAAGGAGTG; listed as DNA, chemistry not fully specified) | −1.039 | −0.6723 | 1.039 | 0.9436 |
| GINS1_ −_25388381.23-P1P2_14 (guide GGACTAGAACGAAAGGAGCG; listed as DNA, chemistry not fully specified) | −0.3535 | −0.2609 | 0.3537 | 0.3662 |
| GNB2L1_ + _180670873.23-P1P2_00 (guide GTGCAAGGCGGCGGCAGGAG; listed as DNA, chemistry not fully specified) | −0.2908 | −0.3054 | 1 | 1 |
| GNB2L1_ + _180670873.23-P1P2_02 (guide GTGCAAGACGGCGGCAGGAG; listed as DNA, chemistry not fully specified) | −0.1438 | −0.1273 | 0.4945 | 0.4167 |
| GNB2L1_ + _180670873.23-P1P2_07 (guide GTGCAAGGCGGGGGCAGGAG; listed as DNA, chemistry not fully specified) | −0.38 | −0.2733 | 1.307 | 0.8948 |
| GNB2L1_ + _180670873.23-P1P2_08 (guide GTGCAAGGTGGCGGCAGGAG; listed as DNA, chemistry not fully specified) | −0.3061 | −0.3155 | 1.052 | 1.033 |
| GNB2L1_ + _180670873.23-P1P2_13 (guide GTGCAAGGCGGCGGCGGGAG; listed as DNA, chemistry not fully specified) | −0.2097 | −0.2074 | 0.7211 | 0.6791 |
